From patent publication US7033829B2, “Method to inhibit cell growth using oligonucleotides” (Trustees of Boston University, priority 2000, dated 2006)
Oligonucleotides are written 5' to 3', each unit as a sugar letter and its base; * is a phosphorothioate linkage, no mark a phosphodiester; rarer units and linkages stand in square brackets, end groups in braces. Plain capitals give the bases only. d = 2'-deoxy (DNA); {P} = phosphate

Key:
[1] = test system: Cloudman S91 mouse melanoma cells; assay: Melanin content of Cloudman S91 melanoma cells; format: cell-based; settings: for melanogenesis: 100 μM dinucleotides or 40 μM 11mers, 6 days; for melanin content relative to control diluent-treated cells: 10 μM, five days, FIG. 17; for pigment content increase, of control levels: 100 μM, three experiments; for pigment content increase, of control levels / melanin content, of control cells / increase in melanin / reduction of melanogenic activity by removal of the 5′ phosphate: 5 days; for melanin content, of control cells: FIG. 12; for increase in melanin: FIG. 15; for reduction of melanogenic activity by removal of the 5′ phosphate: FIG. 16
Method: The induction of melanogenesis in Cloudman S91 mouse melanoma cells by a five-nucleotide oligomer CATAC (SEQ ID NO: 6) and a nine-nucleotide oligomer, GAGTATGAG (SEQ ID NO: 1) was examined. Duplicates of Cloudman S91 murine melanoma cells were incubated with either 100 μM oligo or an equal volume of diluent (H2O) for 5 days. The cells were then collected, counted, and an equal number of cells were pelleted for melanin analysis. […] Variations of this oligonucleotide were evaluated: a scrambled 9-mer (TAGGAGGAT; SEQ ID NO: 2) and two truncated versions, a 7-mer (AGTATGA; SEQ ID NO: 3) and second 5-mer (GTATG; SEQ ID NO: 4). […] The truncated versions (SEQ ID NOs: 3 and 4) were also active, inducing 640% and 670% increases, respectively.
Cultures of Cloudman S91 murine melanoma cells were treated for 5 days with SEQ ID NO: 1, SEQ ID NO: 6, pTpT as a positive control, or an equal volume of diluent as a negative control. […] SEQ ID NO: 6 produced a slight increase in melanin, to 165+/−77% of control levels. SEQ ID NO: 1 stimulated melanin content to an average of 600+/−260% of control levels.
pTpT, shown previously to stimulate pigmentation in these cells, was used as a reference treatment, and diluent alone was used as a negative control. After five days of treatment with the oligonucleotides, the cells were collected, counted, and an equal number of cells were pelleted for melanin analysis. […] SEQ ID NO: 5, representing the telomere over-hang sequence, also at 10 μM, increased the melanin level to 10 times that of control cells.
S91 cells were cultured in the presence of diluent alone, pTpT p9mer (SEQ ID NO: 1), p7mer (AGTATGA; SEQ ID NO: 7) or p5mer #2 (SEQ ID NO: 4). […] Both SEQ ID NOS: 4 and 7 stimulated a 7–8 fold increase in melanin.
S91 cells were cultured for 5 days in the presence of the thymidine dinucleotides or SEQ ID NO: 1 with or without a 5′ phosphate or diluent alone as a negative control.
Cultures of S91 mouse melanoma cells (100,000 cells/38 cm^2) were treated with 100 μM pTpT or phosphorothioate pTpT (pTspT) (FIG. 22) or 40 μM 11mer-1 or the phosphorothioate 11mer-1 (11mer-1-S) (FIG. 23) for 6 days and were then collected, counted and assayed for melanin content.
Duplicate cultures of S91 cells (100,000 cells/39 cm^2) were either sham-irradiated or irradiated with 5 mJ/cm^2 solar-simulated light from a 1 kW xenon arc solar-simulator (XMN 1000-21, Optical Radiation, Azuza, Calif.) metered at […] using a research radiometer (model IL1700A, International Light, Newburyport, Mass.). Two sham-irradiated plates were then supplemented with 100 μM pTspT and two irradiated cultures were similarly treated with pTspT. After one week, cells were collected, counted and analyzed for melanin content by dissolving the cell pellets in 1 N NaOH and measuring the optical density at […]. […] However, this response was blocked by the addition of pTspT (FIG. 24). In addition, the constitutive pigmentation of these cells was reduced by the pTspT in the sham-irradiated cultures, similar to the data presented in FIGS. 22 and 23.

[2] = test system: normal neonatal human fibroblasts; assay: FACS analysis of normal neonatal fibroblasts; format: cell-based; settings: 40 μM; for S-phase checkpoint: within 24 hours
Method: The averages and standard deviations presented in FIGS. 32A–32D were determined from triplicate samples. One representative experiment of three is presented. […] Control 11-base oligonucleotides complementary (11mer-2) or unrelated (11mer-3) to the telomere overhang had no effect on the cells.

Substance	melanogenesis [1]	constitutive pigmentation ([1]; 100 μM pTspT or 40 μM 11mer-1-S, 6 days or one week)	S-phase checkpoint [2]	melanin content relative to control diluent-treated cells [1]	pigment content increase, of control levels [1]	melanin content, of control cells [1]	increase in melanin [1]	reduction of melanogenic activity by removal of the 5′ phosphate [1] [%]	increase in melanin content ([1]; variations of the 9-mer, cells not given) [%]	apoptotic cells ([2]; up to 72 hours)
11mer-1-S: phosphorothioate 11mer-1 (dG*dT*dT*dA*dG*dG*dG*dT*dT*dA*dG; further chemistry not fully specified)	did not	reduced the constitutive pigmentation								
pCTAACCCTAAC (DNA, 5' {P}, backbone not given here) [SEQ ID NO: 9, reference compound]			had no effect	did not produce significant change in pigment content						
pGAGTATGAG (DNA, 5' {P}, backbone not given here) [SEQ ID NO: 1]					418%±267%	600+/−260%	a larger increase	60	800	
pGATCGATCGAT (DNA {P}-dGdAdTdCdGdAdTdCdGdAdT) [SEQ ID NO: 10, reference compound]			had no effect	did not produce significant change in pigment content						
pGTTAGGGTTAG (DNA {P}-dGdTdTdAdGdGdGdTdTdAdG) [SEQ ID NO: 5]	stimulated melanogenesis		activation of an S-phase checkpoint	10 times that of control						no apoptotic cells were detected
thymidine dinucleotide [pTpT]	stimulated melanogenesis			3 times that of control	155%±60%	255+/−60%	moderate increase in melanin content	80		
